Experimental data taken from patent publication EP0278158A2, “Renin inhibitors containing phenylalanyl-histidine replacements” (Merck & Co., Inc., priority 1986, dated 1988).
Non-standard residues stand in square brackets, D forms with d. Residues, ends and D or L forms follow the SMILES beside them. *: point of attachment. Sta = CC(C)C[C@H](N)[C@@H](O)CC(=O)O; Isovaleryl = CC(C)CC(=O)*

What was measured:
renin = target: T1, renin (Homo sapiens, UniProt P00797); test: renin inhibition (IC50 printed in the synthesis example, no method described); type: biochemical
T1 sequence (P00797 67-406): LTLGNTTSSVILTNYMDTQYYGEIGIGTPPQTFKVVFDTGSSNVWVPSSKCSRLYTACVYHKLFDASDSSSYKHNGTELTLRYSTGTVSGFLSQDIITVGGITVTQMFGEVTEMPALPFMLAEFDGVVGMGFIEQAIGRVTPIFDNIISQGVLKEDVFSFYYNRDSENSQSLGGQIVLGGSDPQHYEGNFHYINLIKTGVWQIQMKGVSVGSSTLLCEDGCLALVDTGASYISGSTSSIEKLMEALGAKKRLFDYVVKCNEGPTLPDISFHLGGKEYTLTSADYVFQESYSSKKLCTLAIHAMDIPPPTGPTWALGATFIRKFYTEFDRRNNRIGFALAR

hog renin = settings: after the injection of hog renin into nephrectomized rats; Gross et al., Science 175:656, 1972; cited from earlier work

SMILES	IC50 (renin) [nM]	blood pressure in vivo (hog renin)
CC(C)S(=O)(=O)C[C@@H](CCc1ccccc1)C(=O)N[C@@H](Cc1cnc[nH]1)C(=O)N[C@@H](CC1CCCCC1)[C@@H](O)CC(=O)NC1CN2CCC1CC2 (stereo partly drawn) [3-benzyl-2-(S)-(isopropylsuffonylmethyl)propionyl-L-histidyl-(3S,4S)-4-amino-5-cyclohexyl 3-hydroxypentanoyl 3-quinuclidinyl amide]	11	
CC(C)CC(=O)N[C@H](C(=O)N[C@H](C(=O)N[C@@H](CC(C)C)[C@@H](O)CC(=O)N[C@@H](C)C(=O)N[C@@H](CC(C)C)[C@@H](O)CC(=O)O)C(C)C)C(C)C [pepstatin] (Isovaleryl-VV[Sta]A[Sta]-OH)		reduces blood pressure
